For 7 compounds, mutagenic call results are on record in PubChem BioAssay AID1259407 (Chemical Carcinogenesis Research Information System (CCRIS), 2018).

This data set deals with CCRIS mutagenicity, Ames/micronucleus/aberration tests. Nature of the data set: CCRIS mutagenicity studies.
Where [1] appears, read: Test System: AMES SALMONELLA TYPHIMURIUM, Strain/Indicator: TA98, Metabolic Activation: NONE, Method: STANDARD PLATE.
The mark [2] stands for this setting: Test System: AMES SALMONELLA TYPHIMURIUM, Strain/Indicator: TA100, Metabolic Activation: NONE, Method: PREINCUBATION
Setting [3] is: Test System: AMES SALMONELLA TYPHIMURIUM, Strain/Indicator: TA100, Metabolic Activation: NONE, Method: STANDARD PLATE.
Where [4] appears, read: Test System: AMES SALMONELLA TYPHIMURIUM, Strain/Indicator: TA98, Metabolic Activation: RAT, LIVER, S-9, PHENOBARBITAL, Method: STANDARD PLATE.
The mark [5] stands for this setting: Test System: AMES SALMONELLA TYPHIMURIUM, Strain/Indicator: TA100, Metabolic Activation: RAT, LIVER, S-9, PHENOBARBITAL, Method: STANDARD PLATE.

Each structure is given as a SMILES string. The source made the active and inactive calls. No rule for the calls is given here.

Consider `O=Cc1ccc([N+](=O)[O-])o1`, for which the mutagenic call reads like this: (Test System: AMES SALMONELLA TYPHIMURIUM, Strain/Indicator: TA98(1,8-DNP6), Metabolic Activation: NONE, Method: STANDARD PLATE) “active; positive”; (Test System: AMES SALMONELLA TYPHIMURIUM, Strain/Indicator: TA98(1,8-DNP6), Metabolic Activation: RAT, LIVER, S-9, 3-METHYLCHOLANTHRENE, Method: STANDARD PLATE) “active; positive”; (Test System: AMES SALMONELLA TYPHIMURIUM, Strain/Indicator: TA98(NR), Metabolic Activation: NONE, Method: STANDARD PLATE) “active; positive”; (Test System: AMES SALMONELLA TYPHIMURIUM, Strain/Indicator: TA98(NR), Metabolic Activation: RAT, LIVER, S-9, 3-METHYLCHOLANTHRENE, Method: STANDARD PLATE) “active; positive”; under setting [1], “active; positive”; (Test System: AMES SALMONELLA TYPHIMURIUM, Strain/Indicator: TA98, Metabolic Activation: RAT, LIVER, S-9, 3-METHYLCHOLANTHRENE, Method: STANDARD PLATE) “active; positive”. The mutagenic call is “active; positive” (Test System: AMES SALMONELLA TYPHIMURIUM, Strain/Indicator: TA100(1,8-DNP6), Metabolic Activation: NONE, Method: PREINCUBATION); “active; positive” (Test System: AMES SALMONELLA TYPHIMURIUM, Strain/Indicator: TA100(1,8-DNP6), Metabolic Activation: RAT, LIVER, S-9, AROCLOR 1254, Method: PREINCUBATION); “active; positive” (Test System: AMES SALMONELLA TYPHIMURIUM, Strain/Indicator: TA100(NR), Metabolic Activation: NONE, Method: PREINCUBATION); “active; positive” (Test System: AMES SALMONELLA TYPHIMURIUM, Strain/Indicator: TA100(NR), Metabolic Activation: RAT, LIVER, S-9, AROCLOR 1254, Method: PREINCUBATION); “active; positive” under setting [2]; “active; positive” (Test System: AMES SALMONELLA TYPHIMURIUM, Strain/Indicator: TA100, Metabolic Activation: RAT, LIVER, S-9, AROCLOR 1254, Method: PREINCUBATION).

In the case of `O=C1C(c2[nH]c3ccccc3c2O)=Nc2ccccc21`, the mutagenic call under setting [1] is “inactive; negative”; the mutagenic call (Test System: AMES SALMONELLA TYPHIMURIUM, Strain/Indicator: TA98, Metabolic Activation: RAT, LIVER, S-9, AROCLOR 1254, Method: STANDARD PLATE) is “active; positive”; the mutagenic call under setting [3] was “inactive; negative”; the mutagenic call (Test System: AMES SALMONELLA TYPHIMURIUM, Strain/Indicator: TA100, Metabolic Activation: RAT, LIVER, S-9, AROCLOR 1254, Method: STANDARD PLATE) was “inactive; negative”.

Consider `Nc1cc([N+](=O)[O-])ccc1-c1ccc([N+](=O)[O-])cc1`, for which the mutagenic call by setting is: (Test System: AMES SALMONELLA TYPHIMURIUM, Strain/Indicator: TA98, Metabolic Activation: NONE, Method: PREINCUBATION) “active; positive”; (Test System: AMES SALMONELLA TYPHIMURIUM, Strain/Indicator: TA98, Metabolic Activation: RAT LIVER S-9, AROCLOR 1254, Method: PREINCUBATION) “active; positive”; under setting [2], “active; positive”; under setting [3], “active; positive”; (Test System: AMES SALMONELLA TYPHIMURIUM, Strain/Indicator: TA100, Metabolic Activation: RAT LIVER S-9, AROCLOR 1254, Method: PREINCUBATION) “active; positive”; (Test System: AMES SALMONELLA TYPHIMURIUM, Strain/Indicator: TA104, Metabolic Activation: NONE, Method: STANDARD PLATE) “active; positive”. Moreover, the mutagenic call (Test System: AMES SALMONELLA TYPHIMURIUM, Strain/Indicator: TA4001, Metabolic Activation: NONE, Method: STANDARD PLATE) was “inactive; negative”; the mutagenic call (Test System: AMES SALMONELLA TYPHIMURIUM, Strain/Indicator: TA4006, Metabolic Activation: NONE, Method: STANDARD PLATE) was “active; positive”; the mutagenic call (Test System: AMES SALMONELLA TYPHIMURIUM, Strain/Indicator: TA7002, Metabolic Activation: NONE, Method: STANDARD PLATE) was “active; positive”; the mutagenic call (Test System: AMES SALMONELLA TYPHIMURIUM, Strain/Indicator: TA7002, Metabolic Activation: RAT LIVER S-9, AROCLOR 1254, Method: STANDARD PLATE) is “active; positive”; the mutagenic call (Test System: AMES SALMONELLA TYPHIMURIUM, Strain/Indicator: TA7003, Metabolic Activation: NONE, Method: STANDARD PLATE) is “active; positive”; the mutagenic call (Test System: AMES SALMONELLA TYPHIMURIUM, Strain/Indicator: TA7003, Metabolic Activation: RAT LIVER S-9, AROCLOR 1254, Method: STANDARD PLATE) was “active; positive”. Besides, the mutagenic call was “active; positive” (Test System: AMES SALMONELLA TYPHIMURIUM, Strain/Indicator: TA7004, Metabolic Activation: NONE, Method: STANDARD PLATE); “active; positive” (Test System: AMES SALMONELLA TYPHIMURIUM, Strain/Indicator: TA7004, Metabolic Activation: RAT LIVER S-9, AROCLOR 1254, Method: STANDARD PLATE); “active; positive” (Test System: AMES SALMONELLA TYPHIMURIUM, Strain/Indicator: TA7005, Metabolic Activation: NONE, Method: STANDARD PLATE); “active; positive” (Test System: AMES SALMONELLA TYPHIMURIUM, Strain/Indicator: TA7005, Metabolic Activation: RAT LIVER S-9, AROCLOR 1254, Method: STANDARD PLATE); “active; positive” (Test System: AMES SALMONELLA TYPHIMURIUM, Strain/Indicator: TA7006, Metabolic Activation: NONE, Method: STANDARD PLATE); “active; positive” (Test System: AMES SALMONELLA TYPHIMURIUM, Strain/Indicator: TA7006, Metabolic Activation: RAT LIVER S-9, AROCLOR 1254, Method: STANDARD PLATE). In addition, the mutagenic call (Test System: Ames Salmonella typhimurium, Strain/Indicator: TA102, Metabolic Activation: None, Method: Preincubation) is “active; positive” and the mutagenic call (Test System: Ames Salmonella typhimurium, Strain/Indicator: TA102, Metabolic Activation: Rat, liver, S-9, Aroclor 1254 (4%), Method: Preincubation) is “inactive; negative”.

Regarding `COc1cccc2c(NCCCNCCCl)c3ccccc3nc12`, the mutagenic call was “active; positive” under setting [1]; “active; positive” under setting [3]; “inactive; negative” (Test System: AMES SALMONELLA TYPHIMURIUM, Strain/Indicator: TA1535, Metabolic Activation: NONE, Method: STANDARD PLATE); “active; positive” (Test System: AMES SALMONELLA TYPHIMURIUM, Strain/Indicator: TA1536, Metabolic Activation: NONE, Method: STANDARD PLATE); “active; positive” (Test System: AMES SALMONELLA TYPHIMURIUM, Strain/Indicator: TA1537, Metabolic Activation: NONE, Method: STANDARD PLATE); “active; positive” (Test System: AMES SALMONELLA TYPHIMURIUM, Strain/Indicator: TA1538, Metabolic Activation: NONE, Method: STANDARD PLATE).

Turning to `O=c1c2c(O)cccc2oc2cc3c(c(O)c12)[C@@H]1CCO[C@@H]1O3`, the mutagenic call is, setting by setting: under setting [4], “inactive; negative”; under setting [5], “inactive; negative”.

For the compound `C[n+]1cccc(-c2ccc[n+](C)c2)c1`, the mutagenic call is “inactive; negative” (Test System: AMES SALMONELLA TYPHIMURIUM, Strain/Indicator: TA97, Metabolic Activation: RAT, LIVER, S-9, PHENOBARBITAL, Method: STANDARD PLATE); “inactive; negative” under setting [4]; “active; positive” under setting [5]; “inactive; negative” (Test System: AMES SALMONELLA TYPHIMURIUM, Strain/Indicator: TA1535, Metabolic Activation: RAT, LIVER, S-9, PHENOBARBITAL, Method: STANDARD PLATE); “inactive; negative” (Test System: AMES SALMONELLA TYPHIMURIUM, Strain/Indicator: TA1537, Metabolic Activation: RAT, LIVER, S-9, PHENOBARBITAL, Method: STANDARD PLATE); “inactive; negative” (Test System: AMES SALMONELLA TYPHIMURIUM, Strain/Indicator: TA1538, Metabolic Activation: RAT, LIVER, S-9, PHENOBARBITAL, Method: STANDARD PLATE).

For `C/C=C\C1=CC(=O)[C@]23C[C@H]2C(C)(C)O[C@]3(O)C1=O`, the mutagenic call is, setting by setting: (Test System: AMES SALMONELLA TYPHIMURIUM, Strain/Indicator: TA97, Metabolic Activation: NONE) “inactive; negative”; (Test System: AMES SALMONELLA TYPHIMURIUM, Strain/Indicator: TA98, Metabolic Activation: NONE) “inactive; negative”; (Test System: AMES SALMONELLA TYPHIMURIUM, Strain/Indicator: TA100, Metabolic Activation: NONE) “active; positive”; (Test System: AMES SALMONELLA TYPHIMURIUM, Strain/Indicator: TA102, Metabolic Activation: NONE) “active; positive”.
